This is an account of results in ChEMBL document CHEMBL6071152, “Design, synthesis, and biological evaluation of oridonin derivatives as novel NLRP3 inflammasome inhibitors for the treatment of acute lung injury” (Eur J Med Chem, 2024).

In data set [1] the target is NLR family CARD domain-containing protein 4 (Mus musculus) (UniProt Q3UP24). The data set is described as follows: Inhibition of NLRC4 inflammasome activation in ICR mouse BMDM assessed as inhibition of FLA-ST-stimulated caspase-1 expression in cell supernatant at 1 uM treated for 3 hrs with LPS followed by incubation with compound for 1 hr and later stimulated with FLA-ST for 2 hrs by western blot analysis. The class given is cell-based. On the technique in general: In western blotting, separated proteins are transferred to a membrane and probed.
Sequence of NLR family CARD domain-containing protein 4 (Mus musculus) (Q3UP24 whole entry, the tested form may be a part): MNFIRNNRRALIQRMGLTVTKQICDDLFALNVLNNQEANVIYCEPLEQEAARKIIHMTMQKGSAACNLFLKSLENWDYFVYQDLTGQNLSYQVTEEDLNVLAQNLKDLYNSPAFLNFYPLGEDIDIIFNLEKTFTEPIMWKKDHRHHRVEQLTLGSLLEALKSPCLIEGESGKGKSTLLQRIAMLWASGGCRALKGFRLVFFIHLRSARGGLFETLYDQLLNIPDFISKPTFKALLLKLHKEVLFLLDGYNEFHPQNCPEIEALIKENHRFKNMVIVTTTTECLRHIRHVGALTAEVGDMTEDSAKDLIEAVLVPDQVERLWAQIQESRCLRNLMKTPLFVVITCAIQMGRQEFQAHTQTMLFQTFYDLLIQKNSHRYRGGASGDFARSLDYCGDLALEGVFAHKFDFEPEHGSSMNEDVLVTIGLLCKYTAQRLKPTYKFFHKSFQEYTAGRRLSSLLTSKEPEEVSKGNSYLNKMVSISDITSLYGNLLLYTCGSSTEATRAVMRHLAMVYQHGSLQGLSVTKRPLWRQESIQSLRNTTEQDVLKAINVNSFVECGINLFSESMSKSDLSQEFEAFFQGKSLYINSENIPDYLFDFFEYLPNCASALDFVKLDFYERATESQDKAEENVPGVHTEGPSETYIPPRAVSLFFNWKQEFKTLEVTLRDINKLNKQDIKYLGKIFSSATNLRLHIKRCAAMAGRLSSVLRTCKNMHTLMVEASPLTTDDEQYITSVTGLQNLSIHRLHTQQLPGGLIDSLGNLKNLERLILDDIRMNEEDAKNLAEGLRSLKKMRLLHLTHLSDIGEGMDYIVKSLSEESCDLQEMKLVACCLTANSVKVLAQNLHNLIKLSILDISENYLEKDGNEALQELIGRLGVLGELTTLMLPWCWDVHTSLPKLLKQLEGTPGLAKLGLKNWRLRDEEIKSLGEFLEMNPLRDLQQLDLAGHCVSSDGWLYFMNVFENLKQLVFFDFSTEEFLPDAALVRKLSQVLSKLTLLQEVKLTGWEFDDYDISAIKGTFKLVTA

Data set [2] has as its system Mus musculus. Description: Anti-inflammatory activity against LPS-stimulated acute lung injury C57BL/6 mouse model assessed as decrease in IL-6 mRNA expression in right lung at 0.1 to 1 mg/kg, ip treated for 3 days and on third day administered with LPS at 30 mins post-compound challenge and measured after 12 hrs by RT-qPCR analysis. The class given is functional, organism-based. The conditions noted are these: dose 0.1-1 mg/kg, time 3.5 day. In general terms: In qPCR the cycle at which signal appears reflects the starting amount.

In data set [3] the test system is Mus musculus. The data set is described as follows: Anti-inflammatory activity against LPS-stimulated acute lung injury C57BL/6 mouse model assessed as decrease in IL-1 beta expression in right lung at 0.1 to 10 mg/kg, ip treated for 3 days and on third day administered with LPS at 30 mins post-compound challenge and measured after 12 hrs by western blot analysis. The class given is functional, organism-based. The following applies: dose 0.1-10 mg/kg, time 3.5 day.

In data set [4] the test system is Mus musculus. Description: Anti-inflammatory activity against LPS-stimulated acute lung injury C57BL/6 mouse model assessed as active animal at 10 mg/kg, ip treated for 3 days and on third day administered with LPS at 30 mins post-compound challenge. The class given is functional, organism-based. The following applies: time 3.0 day.
Data set [5] addresses NACHT, LRR and PYD domains-containing protein 3 (Mus musculus) (UniProt Q8R4B8). The data set is described as follows: Inhibition of NLRP3 inflammasome activation in ICR mouse BMDM assessed as inhibition of LPS/ATP-stimulated caspase-1 expression in cell supernatant at 1 uM treated for 3 hrs with LPS followed by incubation with compound for 1 hr and later stimulated with ATP for 0.5 hrs by western blot analysis. It is filed as cell-based. The conditions noted are these: time 1.5 hrs.

In data set [6] the test system is Mus musculus. Description: Anti-inflammatory activity against LPS-stimulated acute lung injury C57BL/6 mouse model assessed as decrease in TNF-alpha level in BALF at 0.1 to 1 mg/kg, ip treated for 3 days and on third day administered with LPS at 30 mins post-compound challenge and measured after 12 hrs by ELISA. The class given is functional, organism-based. The following applies: dose 0.1-1 mg/kg, time 3.5 day. Background: In an ELISA, binding on a coated surface is turned into a signal by an enzyme label.

Data set [7] deals with NACHT, LRR and PYD domains-containing protein 3 (Mus musculus) (UniProt Q8R4B8). The data set is described as follows: Inhibition of NLRP3 inflammasome activation in ICR mouse BMDM assessed as inhibition of LPS/MSU-stimulated IL-1 beta expression in cell supernatant at 1 uM treated for 3 hrs with LPS followed by incubation with compound for 1 hr and later stimulated with MSU for 4 hrs by western blot analysis. It is filed as cell-based. The conditions noted are these: time 5.0 hrs.
Sequence of NACHT, LRR and PYD domains-containing protein 3 (Mus musculus) (Q8R4B8 whole entry, the tested form may be a part): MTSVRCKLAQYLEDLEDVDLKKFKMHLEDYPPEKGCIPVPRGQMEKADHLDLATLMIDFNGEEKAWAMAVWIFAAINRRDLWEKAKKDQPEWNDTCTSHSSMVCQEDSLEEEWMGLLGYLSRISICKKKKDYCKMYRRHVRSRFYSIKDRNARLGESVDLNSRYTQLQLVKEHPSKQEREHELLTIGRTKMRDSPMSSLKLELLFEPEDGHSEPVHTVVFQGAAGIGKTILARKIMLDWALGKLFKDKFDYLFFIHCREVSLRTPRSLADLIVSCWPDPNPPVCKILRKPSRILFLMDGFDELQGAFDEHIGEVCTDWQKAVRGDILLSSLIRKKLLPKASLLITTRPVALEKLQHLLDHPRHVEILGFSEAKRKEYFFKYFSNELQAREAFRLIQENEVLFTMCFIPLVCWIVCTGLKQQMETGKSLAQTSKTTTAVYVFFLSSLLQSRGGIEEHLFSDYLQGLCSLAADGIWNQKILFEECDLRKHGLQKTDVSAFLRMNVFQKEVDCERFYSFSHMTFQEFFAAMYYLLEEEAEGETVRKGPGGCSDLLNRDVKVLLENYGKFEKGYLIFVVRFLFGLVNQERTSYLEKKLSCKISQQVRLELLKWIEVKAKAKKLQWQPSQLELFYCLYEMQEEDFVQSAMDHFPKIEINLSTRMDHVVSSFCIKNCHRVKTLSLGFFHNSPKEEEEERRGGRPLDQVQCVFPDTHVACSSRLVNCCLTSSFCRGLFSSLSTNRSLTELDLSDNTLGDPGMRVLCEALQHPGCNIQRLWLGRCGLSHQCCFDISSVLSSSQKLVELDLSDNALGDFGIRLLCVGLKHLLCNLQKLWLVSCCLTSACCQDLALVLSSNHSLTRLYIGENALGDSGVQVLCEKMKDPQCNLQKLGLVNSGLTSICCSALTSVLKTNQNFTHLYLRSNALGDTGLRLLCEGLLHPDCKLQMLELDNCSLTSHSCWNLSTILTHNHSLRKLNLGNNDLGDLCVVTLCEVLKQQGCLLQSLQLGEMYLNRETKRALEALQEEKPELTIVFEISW

Data set [8] concerns Mus musculus. The data set is described as follows: Anti-inflammatory activity against LPS-stimulated acute lung injury C57BL/6 mouse model assessed as decrease in weight loss at 0.1 to 1 mg/kg, ip treated for 3 days and on third day administered with LPS at 30 mins post-compound challenge. It is filed as functional, organism-based. The following applies: dose 0.1-1 mg/kg, time 3.0 day.

Data set [9] is described as follows: Cytotoxicity against ICR mouse BMDM assessed as reduction in cell viability incubated for 24 hrs by CCK8 assay. The conditions noted are these: BMDM (bone marrow-derived macrophages). It is filed as toxicity, cell-based.
Data set [10] has as its target NACHT, LRR and PYD domains-containing protein 3 (Mus musculus) (UniProt Q8R4B8). The data set is described as follows: Inhibition of NLRP3 inflammasome priming in ICR mouse BMDM assessed as inhibition of pro-IL-1 beta protein expression in cell lysate at 1 uM treated for 3 hrs with LPS followed by incubation with compound for 1 hr and later stimulated with ATP for 0.5 hrs by western blot analysis. It is filed as subcellular. The conditions noted are these: time 1.5 hrs.

Data set [11] has the same target. The data set is described as follows: Inhibition of NLRP3 inflammasome priming in ICR mouse BMDM assessed as inhibition of pro-IL1 beta protein expression in cell lysate at 1 uM treated for 3 hrs with LPS followed by incubation with compound for 1 hr and later stimulated with MSU for 4 hrs by western blot analysis. It is filed as subcellular. The following applies: time 5.0 hrs.

The test system of data set [12] is Mus musculus. Description: Anti-inflammatory activity against LPS-stimulated acute lung injury C57BL/6 mouse model assessed as decrease in IL-18 mRNA expression in right lung at 0.1 to 1 mg/kg, ip treated for 3 days and on third day administered with LPS at 30 mins post-compound challenge and measured after 12 hrs by RT-qPCR analysis. The conditions noted are these: dose 0.1-1 mg/kg, time 3.5 day. The class given is functional, organism-based.

Data set [13] concerns the target NACHT, LRR and PYD domains-containing protein 3 (Mus musculus) (UniProt Q8R4B8). The data set is described as follows: Inhibition of NLRP3 inflammasome priming in ICR mouse BMDM assessed as inhibition of pro-IL-1 beta protein expression in cell lysate at 0.2 to 5 uM treated for 3 hrs with LPS followed by incubation with compound for 1 hr and later stimulated with ATP for 0.5 hrs by western blot analysis. It is filed as subcellular. The following applies: dose 0.2-5 µM, time 1.5 hrs.

Data set [14] has as its system Mus musculus. Description: Anti-inflammatory activity against LPS-stimulated acute lung injury C57BL/6 mouse model assessed as decrease in IL-6 level in serum at 0.1 to 1 mg/kg, ip treated for 3 days and on third day administered with LPS at 30 mins post-compound challenge and measured after 12 hrs by ELISA. The class given is functional, organism-based. The conditions noted are these: dose 0.1-1 mg/kg, time 3.5 day.

Data set [15] relates to Mus musculus. Description: Anti-inflammatory activity against LPS-stimulated acute lung injury C57BL/6 mouse model assessed as decrease in TNF-alpha level in serum at 0.1 to 1 mg/kg, ip treated for 3 days and on third day administered with LPS at 30 mins post-compound challenge and measured after 12 hrs by ELISA. The conditions noted are these: dose 0.1-1 mg/kg, time 3.5 day. The class given is functional, organism-based.

The target in data set [16] is NACHT, LRR and PYD domains-containing protein 3 (Mus musculus) (UniProt Q8R4B8). The data set is described as follows: Inhibition of NLRP3 inflammasome priming in ICR mouse BMDM assessed as inhibition of NLRP3 protein expression in cell lysate at 0.2 to 5 uM treated for 3 hrs with LPS followed by incubation with compound for 1 hr and later stimulated with ATP for 0.5 hrs by western blot analysis. It is filed as subcellular. The following applies: dose 0.2-5 µM, time 1.5 hrs.

Data set [17] has the same target. The data set is described as follows: Inhibition of NLRP3 inflammasome priming in ICR mouse BMDM assessed as inhibition of pro-caspase-1 expression in cell supernatant at 0.2 to 5 uM pretreated with compound for 1 hr followed by stimulation with LPS for 3 hrs and later incubated with ATP for 30 mins by western blot analysis. The following applies: dose 0.2-5 µM, time 4.5 hrs. The class given is cell-based.

In data set [18] the target is T1, Interferon-inducible protein AIM2 (Mus musculus) (UniProt Q91VJ1).
T1 sequence (whole entry): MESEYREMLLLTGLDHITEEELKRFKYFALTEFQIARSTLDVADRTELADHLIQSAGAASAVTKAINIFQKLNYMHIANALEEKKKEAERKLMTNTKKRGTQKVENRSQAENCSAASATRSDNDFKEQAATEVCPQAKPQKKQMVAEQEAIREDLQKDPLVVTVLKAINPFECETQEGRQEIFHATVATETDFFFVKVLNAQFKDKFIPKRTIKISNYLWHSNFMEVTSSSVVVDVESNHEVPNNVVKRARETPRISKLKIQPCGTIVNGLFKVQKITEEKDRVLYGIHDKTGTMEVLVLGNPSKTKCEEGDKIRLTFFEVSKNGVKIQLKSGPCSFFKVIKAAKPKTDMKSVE
The data set is described as follows: Inhibition of AIM2 inflammasome activation in ICR mouse BMDM assessed as inhibition of poly(dA:dT)-stimulated caspase-1 expression in cell supernatant at 1 uM treated for 3 hrs with LPS followed by incubation with compound for 1 hr and later cells transfected with poly(dA:dT) for 4 hrs by western blot analysis. The conditions noted are these: time 5.0 hrs. The class given is cell-based.

Data set [19] deals with NACHT, LRR and PYD domains-containing protein 3 (Homo sapiens, UniProt Q96P20). Description: Binding affinity to NLRP3 (unknown origin) by SPR assay.
Sequence of NACHT, LRR and PYD domains-containing protein 3 (Q96P20 whole entry, the tested form may be a part): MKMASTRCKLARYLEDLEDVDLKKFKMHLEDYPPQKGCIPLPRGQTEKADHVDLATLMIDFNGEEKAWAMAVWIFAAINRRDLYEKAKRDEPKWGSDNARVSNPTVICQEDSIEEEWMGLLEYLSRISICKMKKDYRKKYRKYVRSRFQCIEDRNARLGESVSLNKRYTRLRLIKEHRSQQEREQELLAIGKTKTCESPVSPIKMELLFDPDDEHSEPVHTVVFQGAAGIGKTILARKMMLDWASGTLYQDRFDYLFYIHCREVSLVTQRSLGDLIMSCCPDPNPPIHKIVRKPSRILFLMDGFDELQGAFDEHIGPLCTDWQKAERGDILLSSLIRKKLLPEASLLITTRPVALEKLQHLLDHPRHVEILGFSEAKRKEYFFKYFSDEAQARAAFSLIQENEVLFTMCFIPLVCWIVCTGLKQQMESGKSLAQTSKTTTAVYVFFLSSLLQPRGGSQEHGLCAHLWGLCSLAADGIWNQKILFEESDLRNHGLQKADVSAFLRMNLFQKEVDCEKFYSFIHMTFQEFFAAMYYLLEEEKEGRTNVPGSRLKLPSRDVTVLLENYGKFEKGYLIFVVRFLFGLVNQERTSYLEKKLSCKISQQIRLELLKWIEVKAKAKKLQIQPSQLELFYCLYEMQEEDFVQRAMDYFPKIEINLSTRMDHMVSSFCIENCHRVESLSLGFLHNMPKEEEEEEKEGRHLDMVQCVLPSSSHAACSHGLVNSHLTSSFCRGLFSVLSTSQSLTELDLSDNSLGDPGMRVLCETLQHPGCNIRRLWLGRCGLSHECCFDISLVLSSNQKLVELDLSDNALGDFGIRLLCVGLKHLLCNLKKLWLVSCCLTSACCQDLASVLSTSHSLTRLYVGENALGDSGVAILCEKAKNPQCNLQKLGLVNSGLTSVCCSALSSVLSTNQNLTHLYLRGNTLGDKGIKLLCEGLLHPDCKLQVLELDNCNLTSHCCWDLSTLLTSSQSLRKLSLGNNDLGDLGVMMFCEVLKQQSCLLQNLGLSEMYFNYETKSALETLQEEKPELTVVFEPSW
Data set [20] relates to Mus musculus. The data set is described as follows: Anti-inflammatory activity against LPS-stimulated acute lung injury C57BL/6 mouse model assessed as decrease in IL-1 beta level in BALF at 0.1 to 1 mg/kg, ip treated for 3 days and on third day administered with LPS at 30 mins post-compound challenge and measured after 12 hrs by ELISA. It is filed as functional, organism-based. The following applies: dose 0.1-1 mg/kg, time 3.5 day.

Usually IC50 stands for the concentration that inhibits the measured activity by half. Usually Kd stands for the free concentration of one partner at which half of the binding sites on the other are occupied at equilibrium, for simple one-to-one binding.

Each structure is given as a SMILES string. The source made the active and inactive calls. The calls are words filed in the database; no cut-off is given here.

Regarding `C=C1C(=O)[C@]23[C@H](OC(=O)Nc4ccc(F)cc4)[C@H]1CC[C@H]2[C@]12C=CCC(C)(C)[C@H]1[C@H](O)[C@@]3(O)OC2`, the inhibition result in data set [1], in data set [10], in data set [11], in [13], in [16] and in data set [17] was “inactive” throughout. For the same compound, the inhibition result in data set [18] was “inactive”. The Activity entry in data set [2], in data set [6], in [12], in data set [14], in data set [15] and in [20] was “Dose-Dependent Effect” throughout. Also, the outcome in [3], in data set [4] and in data set [8] was Active. Further, the inhibition result in data set [5] and in [7] was “Active” in each case. In [9], the IC50 at 24 h is greater than 10 µM. In addition, the Kd in [19] turned out to be 5.17 µM.
